Laboratory results from patent US12122760B2, “Compound, composition, and use thereof in preparation of drug” (CHANGSHA ZEDA MEDICAL TECH. CO., LTD, priority 2019, dated 2024).

Tests used:
AR-LBD (GST) = target: T1, AR-LBD (GST) (Rattus norvegicus, UniProt P15207); assay: PolarScreen Androgen Receptor (AR) Competitor Assay, binding experiment of the antagonist and AR; conditions: fluorescence polarization, incubated 6 hours, FIG. 1; read-out: IC50 of the drug and AR-LBD binding
T1 construct: purchased Life technologies company, USA
T1 sequence (P15207 651-882 limits assumed): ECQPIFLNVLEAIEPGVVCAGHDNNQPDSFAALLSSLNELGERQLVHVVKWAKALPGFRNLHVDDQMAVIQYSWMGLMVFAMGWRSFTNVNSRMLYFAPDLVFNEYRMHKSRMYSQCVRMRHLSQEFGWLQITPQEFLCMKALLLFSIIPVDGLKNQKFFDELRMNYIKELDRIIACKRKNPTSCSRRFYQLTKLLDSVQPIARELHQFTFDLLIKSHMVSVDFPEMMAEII
Description: PolarScreen™ Androgen Receptor (AR) Competitor Assay, Green kit (Life technologies company, USA) is used to test the affinity of the antagonist to AR-LBD (GST). The mechanism of the experiment is that the AR-LBD is combined with a small molecule fluormone tracer (Fluormone Tracer), and an antagonist added can competitively bind with AR-LBD so as to replace the fluormone tracer, and the replaced fluormone tracer […], and the value of the fluorescence polarization is inversely proportional to the number of the replaced tracers.
A specific process is as follows: the drug is dissolved into 500 uM by using DMSO, and then diluted to 244 nM by double dilution concentration gradients in a 96-well plate. A 10 uL of a reaction system AR-LBD+Tracer is configured in a 384-well plate and 10 uL of the drug solution is added. The positive control is 10 uL of AR-LBD+Tracer with 10 uL of DHT added. The 384-well plate is wrapped by tin foil and incubated for 6 hours in the dark. The fluorescence polarization value is read on a multi-function microplate reader. Graphpad Prism software is used to draw a drug concentration as an abscissa, and the fluorescence polarization value is used as an ordinate for drawing a curve. […] Herein, the DHT, MDV3100, and ARN509 are positive controls.

[1] = tested on: Histone deacetylase (HDAC); assay: HDAC inhibitory activity: Kac-tubulin Western Blot in VCaP cells; type: cell-based; conditions: 10 uM drug, 24 h, FIG. 4
Protocol: The VCap cells are cultured in the 6-well plate. After treating the VCap cells with the drugs for 24 hours, acetylation levels of the tubulin in the cytoplasm and the H3 protein in the nucleus are examined by the western blot. An experiment process is as follows:
The VCaP cells are spread in the 6-well plate. 5×10^5 cells are inoculated per well, and incubated overnight to make the cells stick to a wall. On the second day, 10 uM of the drug is added per well. After being incubated for 24 h, the cells are collected, and lysed to extract the cell total protein. The Western Blot method is used to detect the expression levels of Kac-tubilin (localized cytoplasm) in the cells after treating with the different drugs.

AR-positive VCaP cells = assay: Selective effects of the drug to cells (MTS; VCaP versus 293T and DU145); type: cell-based; conditions: 4 days treatment, FIG. 10
Protocol: (§1) 293T cells are AR-negative human embryonic kidney cells, DU145 cells are AR-negative prostate cancer cells, and VCaP cells are AR-positive prostate cancer cells. These three types of the cells are cultured in the 96-well plates and treated with the drugs (in the concentration gradient) respectively for 4 days. Then the inhibition of the drugs on cell proliferation are measure by MTS. Detailed process is as follows:
(§2) The VCaP cells are cultured with 5% CSS and 1640 medium without phenol red, and inoculated in the 96-well plates, and 1×10^4 cells are added to each well. The 293T cells and the DU145 cells are cultured with 10% FBS and 1640 medium, and inoculated in the 96-well plates, and 2×10^3 cells are added to each well. The cells are incubated overnight to make the cells stick to a wall. Then the different concentrations of the drugs are added on the second day. After treatment with the drugs for 4 days, cell viability is measured by the MTS kit (Promega, USA). To each well, 10% of an MTS reagent is added, and incubation continued for 2 hours. The absorbance value at […] is then measured by the multi-functional microplate reader. The Graphpad Prism software is used to draw a curve by using the drug concentration as an abscissa and using the absorbance value of the drug treatment/the absorbance value of the blank treatment cell as an ordinate.

[2] = tested on: AR-negative cells (293T and DU145); assay: Selective effects of the drug to cells (MTS), AR-negative cells; type: cell-based, human; conditions: 293T and DU145, 4 days treatment, FIG. 10
Protocol: as §1, §2

In the case of `N#Cc1ccc(N2C(=O)C3(CCC3)N(c3ccc(C(=O)NO)c(F)c3)C2=S)cc1C(F)(F)F` [Zeta 55, 4-(7-(4-cyano-3-(trifluoromethyl)phenyl)-8-oxo-6-thio-5,7-diazaspiro[3.4]octane-5-yl)-2-fluoro-N-hydroxybenzamide], the IC50 (AR-LBD (GST)) is reported as 29.8 µM, the “acetylation of the tubulin in the cytoplasm (HDAC inhibitory activity)” value [1] is reported as “superior” and the “proliferation inhibition effect on AR-positive VCaP cells relative to AR-negative cells (293T and DU145)” value (AR-positive VCaP cells) is reported as “more than 20 times”. The “selectivity of proliferation inhibition” value (AR-positive VCaP cells) was “selective proliferation inhibition on the AR-positive VCaP cells” and the “cytotoxicity toward AR-negative cells” value [2] was “may have low cytotoxicity toward AR-negative cells”.
